In publication PMC7315563, “Bioactive fluorenes. Part III: 2,7-dichloro-9H-fluorene-based thiazolidinone and azetidinone analogues as anticancer and antimicrobial against multidrug resistant strains agents” (BMC Chemistry, 2020):
Values after ≈ are worked out from the molar mass of the structure shown.

Legend:
[1] = system: Staphylococcus aureus (S. aureus), multidrug resistant clinical isolate; test: agar well diffusion assay; format: cell-based; conditions: Staphylococcus aureus; S. aureus; 500 µg/mL of tested compound; 24 h
Excerpt: (§1) All microbial strains were kindly provided from the department of Medical Microbiology and Immunology faculty of Medicine Assiut University, these clinical isolates were obtained from clinical cases of infections admitted to Assiut University hospital as urinary tract infections, corneal ulcers, bacterial and fungal pneumonia, otomycosis, oral thrush and wound infections.
(§2) The clinical isolates used were multidrug resistant strains, they were resistant to β lactam (penicillin, amoxacillin, oxacillin), cephalosporins (cefazolin, cefaclor and cefepime) and macrolides (erythromycin and clarithromycin), they included Gram positive bacteria as Staphylococcus aureus (S. aureus), Methicillin-resistant Staphylococcus aureus (MRSA), Streptococcus pneumoniae (S. pneumoniae), and Gram negative bacteria as Escherichia coli (E. coli), Klebsiella pneumoniae (K. pneumoniae), Pseudomonas aeruginosa (P. aeruginosa), and Acinetobacter baumannii (A. baumannii). The fungal strains that were tested are Aspergillus flavus (A. flavus), A. niger (A. niger) and Candida albicans (C. albicans).
(§3) The antimicrobial activity of the fluorene derivatives was initially evaluated by agar well diffusion assay. Mueller–Hinton agar (CM0337) was poured into Petri dishes at 50–60 °C and left to solidify for 15 min. Subsequently, overnight microbial suspensions of tested strains was adjusted to turbidity of 0.5 McFarland Standard, which equals to 1–2 × 10^8 CFU/mL for bacteria and 1–5 × 10^6 for fungi. The microbial inoculums were then diluted in 1:100 ratio in case of bacteria and 1:10 ratio in case of fungi in order to get 1–5 × 10^5 CFU/mL. a sterile cotton swab was dipped into the adjusted microbial suspension and the Mueller–Hinton agar plates were inoculated by evenly streaking cotton swab over the agar medium. Then wells with a diameter of 0.5 cm were cut in the medium with a sterile cork borer. Stock solutions of the flourene derivatives were diluted in DMSO 1% to get 500 μg/mL concentrations. The tested flourene derivatives and controls (50 μL) were dispensed into the wells. The plates were incubated for 24 h at 37 °C for bacteria and C. albicans while at 25 °C for A. falvus and A. niger. The diameters of zones of inhibition (ZOI) around the wells were measured in mm. Following control agents were used: positive control agents—vancomycin (50 μg/mL) for Gram positive bacteria, gentamicin (10 μg/mL) (for Gram negative bacteria) and fluconazole 25 μg/mL for fungi and negative control agent is 1% DMSO.

[2] = system: Escherichia coli (E. coli), multidrug resistant clinical isolate; test: agar well diffusion assay; format: cell-based; conditions: 24 h, 500 µg/mL of tested compound
Excerpt: as §1, §2, §3

[3] = system: A549 human lung cancer cells; test: cell viability assay (MTT); format: cell-based; conditions: 24 h; for viability at 1 µg/mL: read-out: Validity (%) for sample concentrations (µg/mL) 1; for viability at 10 µg/mL: read-out: Validity (%) for sample concentrations (µg/mL) 10; for viability at 31.25 µg/mL: read-out: Validity (%) for sample concentrations (µg/mL) 31.25; for viability at 62.5 µg/mL: 62.50 µg/mL, read-out: Validity (%) for sample concentrations (µg/mL) 62.50; for viability at 125 µg/mL: read-out: Validity (%) for sample concentrations (µg/mL) 125; for viability at 250 µg/mL: read-out: Validity (%) for sample concentrations (µg/mL) 250; for viability at 500 µg/mL: read-out: Validity (%) for sample concentrations (µg/mL) 500; for viability at 1000 µg/mL: read-out: Validity (%) for sample concentrations (µg/mL) 1000
Procedure: WI-38 normal lung fibroblast cells, A549 lung cancer cells, and MDA-MB-231 breast cancer cells were obtained from VACSERA—Cell Culture Unit, Cairo, Egypt. The cell lines were originally obtained from the American Tissue Culture Collection (ATCC). WI-38, A549, and MDA-MB-231 cell lines were cultured in RPMI-1640 medium supplemented with 10% inactivate fetal bovine serum (FBS) and 1% penicillin/streptomycin were bought (Gibco, Invitrogen, CA). WI-38, A549, and MDA-MB-231 cells were seeded into 96-well plates (at a density of 5000 cells/well). […] Cell viability was then assessed using the MTT assay (Sigma Aldrich, St. Louis, MO, USA), and the absorbance was read at 570 nm using an ELISA microplate reader (Molecular Devices, Downingtown, PA, USA).

[4] = system: WI-38 human normal fibroblast cells; test: cell viability assay (MTT); format: cell-based; conditions: 24 h; for viability at 31.25 µg/mL: read-out: Validity (%) for sample concentrations (µg/mL) 31.25; for viability at 62.5 µg/mL: 62.50 µg/mL, read-out: Validity (%) for sample concentrations (µg/mL) 62.50; for viability at 125 µg/mL: read-out: Validity (%) for sample concentrations (µg/mL) 125; for viability at 250 µg/mL: read-out: Validity (%) for sample concentrations (µg/mL) 250; for viability at 500 µg/mL: read-out: Validity (%) for sample concentrations (µg/mL) 500
Procedure: (§4) WI-38 normal lung fibroblast cells, A549 lung cancer cells, and MDA-MB-231 breast cancer cells were obtained from VACSERA—Cell Culture Unit, Cairo, Egypt. The cell lines were originally obtained from the American Tissue Culture Collection (ATCC). WI-38, A549, and MDA-MB-231 cell lines were cultured in RPMI-1640 medium supplemented with 10% inactivate fetal bovine serum (FBS) and 1% penicillin/streptomycin were bought (Gibco, Invitrogen, CA). WI-38, A549, and MDA-MB-231 cells were seeded into 96-well plates (at a density of 5000 cells/well). On the following day, cells were treated with different concentrations (0, 1, 10, 31.25, 62.5, 125, 250, 500 µg/mL) of 16 fluorene derivatives in fresh medium and incubated for another 24 h. Cell viability was then assessed using the MTT assay (Sigma Aldrich, St. Louis, MO, USA), and the absorbance was read at 570 nm using an ELISA microplate reader (Molecular Devices, Downingtown, PA, USA).

[5] = system: MDA-MB-231 human breast cancer cells; test: cell viability assay (MTT); format: cell-based; conditions: 24 h; for viability at 1 µg/mL: read-out: Validity (%) for sample concentrations (µg/mL) 1; for viability at 10 µg/mL: read-out: Validity (%) for sample concentrations (µg/mL) 10; for viability at 31.25 µg/mL: read-out: Validity (%) for sample concentrations (µg/mL) 31.25; for viability at 62.5 µg/mL: read-out: Validity (%) for sample concentrations (µg/mL) 62.5; for viability at 125 µg/mL: read-out: Validity (%) for sample concentrations (µg/mL) 125; for viability at 250 µg/mL: read-out: Validity (%) for sample concentrations (µg/mL) 250; for viability at 500 µg/mL: read-out: Validity (%) for sample concentrations (µg/mL) 500
Procedure: as §4

| IC50 [3] [µg/mL] | SMILES | zone of inhibition at 500 µg/mL [2] [mm] | viability at 1 µg/mL [3] [%] | viability at 10 µg/mL [3] [%] | viability at 31.25 µg/mL [3] [%] | viability at 62.5 µg/mL [3] [%] | viability at 125 µg/mL [3] [%] | viability at 250 µg/mL [3] [%] | viability at 500 µg/mL [3] [%] | viability at 1000 µg/mL [3] [%] | viability at 31.25 µg/mL [4] [%] | viability at 62.5 µg/mL [4] [%] | viability at 125 µg/mL [4] [%] | viability at 250 µg/mL [4] [%] | viability at 500 µg/mL [4] [%] | IC50 [4] [µg/mL] | viability at 1 µg/mL [5] [%] | viability at 10 µg/mL [5] [%] | viability at 31.25 µg/mL [5] [%] | viability at 62.5 µg/mL [5] [%] | further results |
| --- | --- | --- | --- | --- | --- | --- | --- | --- | --- | --- | --- | --- | --- | --- | --- | --- | --- | --- | --- | --- | --- |
| 577 (≈ 1190 µM) | O=C1CSC(c2ccc[nH]2)N1c1nc(-c2cc(Cl)cc3c2-c2ccc(Cl)cc2C3)cs1 (centres unmarked) [5l, 3-(4-(2,7-Dichloro-9H-fluoren-4-yl)thiazol-2-yl)-2-(1H-pyrrol-2-yl)thiazolidin-4-one] | 6 | 96.5 | 93.6 | 75.4 | 72.2 | 68 | 62.9 | 51.9 | 41.3 | 70.5 | 60.6 | 57.2 | 48.1 | 39.5 | 223 (≈ 460 µM) | 99.1 | 87.6 | 79.7 | 76.2 | zone of inhibition at 500 µg/mL [1]: 9 mm; viability at 125 µg/mL [5]: 72.4%; viability at 250 µg/mL [5]: 64.6%; viability at 500 µg/mL [5]: 57.8%; IC50 [5]: > 500 µg/mL; melting point: 124 to 126 °C |
| 357 (≈ 719 µM) | O=C1CSC(c2ccncc2)N1c1nc(-c2cc(Cl)cc3c2-c2ccc(Cl)cc2C3)cs1 (centres unmarked) [5m, 3-(4-(2,7-Dichloro-9H-fluoren-4-yl)thiazol-2-yl)-2-(pyridin-4-yl)thiazolidin-4-one] | 8 | 94 | 92.5 | 70.7 | 67.5 | 64.5 | 56.5 | 37.3 | 20.1 | 68.5 | 64.6 | 42.3 | 40.3 | 26.5 | 92 (≈ 185 µM) | 97.3 | 89.5 | 85.4 | 88.3 | zone of inhibition at 500 µg/mL [1]: 5 mm; viability at 125 µg/mL [5]: 76.9%; viability at 250 µg/mL [5]: 65.6%; viability at 500 µg/mL [5]: 50.6%; IC50 [5]: 505 µg/mL (≈ 1020 µM); melting point: 110 to 112 °C |
| 338 (≈ 640 µM) | COc1ccc(C2C(Cl)C(=O)N2c2nc(-c3cc(Cl)cc4c3-c3ccc(Cl)cc3C4)cs2)cc1 (centres unmarked) [6b, 3-Chloro-1-(4-(2,7-dichloro-9H-fluoren-4-yl)thiazol-2-yl)-4-(4-methoxyphenyl)azetidin-2-one] | 12 | 95.7 | 86.9 | 85.8 | 83.5 | 77.8 | 68.2 | 35.2 | 36.3 | 94.1 | 87.9 | 71.6 | 62.6 | 57.7 | > 500 | 95.9 | 93.4 | 89.7 | 84.2 | viability at 125 µg/mL [5]: 79.8%; viability at 250 µg/mL [5]: 72.9%; viability at 500 µg/mL [5]: 68.9%; IC50 [5]: > 500 µg/mL; melting point: 110 to 112 °C |
